From patent US20210177952A1, “METHOD AND COMPOSITION FOR STIMULATING IMMUNE RESPONSE” (BeyondSpring Pharmaceuticals, Inc., priority 2018, published 2021) come the findings set out here.

The format of series [1] is in vivo, Mouse, C57BL6. To be noted: 15 mg/kg IP BID, subgroup I group 3, three animals. As for the experimental part: Detailed Clinical Observations: Scheduled detailed clinical observations were not conducted on this study. Unscheduled clinical observations were made on mice flagged by trained personnel during daily moribundity/morbidity checks for any reason.
The remaining subgroups II-V, group 3 animals were dosed at 10 mg/kg (indicated as “*” in Tables 3-4 above). The experimental observations described below in this Example were focused on the lower dose (10-mg/kg) mice.

The next series concerns CD14^+ dendritic cells. Nature of the series: FACS evaluation of dendritic cell maturation markers CD40, CD80, MHCII and CD86. It is filed as cell-based, Human. The protocol: ISOLATION OF CD14^+ MONOCYTES FROM PBMCs: On Day 1 of the study, PBMC cells were obtained from a human donor according to (1a)-(1d) above. Monocytes were then isolated from these PBMCs on the same day (Day 1) according to steps (2a)-(2k) as follows: (2a) The number of the PBMC cells was determined. (2b) The cell suspension was centrifuged at 300×g for 10 minutes; and the supernatant was aspirated completely. (2c) The cell pellet was re-suspended in 80 μL of FACS buffer per 10^7 total cells. (2d) Per 10^7 total cells, 20 μL of CD14 MicroBeads were added. (2e) Mix well and incubate for 15 minutes in the refrigerator (2 to 8° C.). (2f) The cells were washed by adding 1 to 2 mL of FACS buffer per 10^7 cells and centrifuged at ×1500 rpm for 10 min. (2g) The cells were re-suspended up to 10^8 cells in 500 μL of FACS buffer. (2h) The column was placed in magnetic field of a suitable MACS Separator. (2i) The column was prepared by rinsing with 3 mL of FACS buffer. (2j) The cell suspension was applied onto the column. Unlabeled cells that pass through were collected and the column was washed for three times each with 3 mL of FACS buffer. Total effluent, which was the unlabeled cell fraction, was collected. Washing steps were performed by adding FACS buffer three times. New buffer was added only when the column reservoir became empty. (2k) The column was then removed from the separator and placed on a suitable collection tube. 5 mL of FACS buffer was pipetted onto the column. The magnetically labeled cells were immediately flushed out by firmly pushing the plunger into the column. This fraction represented the CD14 positive monocytes.
DIFFERENTIATION OF MONOCYTES INTO CD14^+ DENDRITIC CELLS: From the CD14 positive monocytes obtained from (2k), dendritic cells (DCs) were differentiated according to steps (2l)-(2p) as follows: (21) 5×10^6 cells were re-suspended per 5 mL of ImmunoCult™ DC Differentiation Medium and mixed well. Then 5 mL of the cell suspension was added to a T-25 cm^2 flask and the cells were incubated for 3 days at 37° C. and 5% CO2. (2m) Meanwhile, in parallel, the monocytes were treated with 3, 1, 0.3, 0.1, 0.01 and 0 μM plinabulin, respectively, in the wells of a 6-well plate and incubated for 3 days. (2n) On Day 4, the medium was removed from the T-25 cm^2 flask by pipetting and added to a 14-mL centrifuge tube. 5 mL of fresh ImmunoCult™ DC Differentiation Medium was quickly added to the culture flask. (2o) The 14 mL tube containing medium and cells (from step (2n)) was centrifuged at 300×g for 10 min. The supernatant was removed and discarded. Cells were resuspended in a small volume (i.e. 50 μL or up to 10% of the original volume) of fresh ImmunoCult™ DC Differentiation Medium and returned to the culture flask in order to save non-adherent or loosely adherent cells. The cells were then incubated at 37° C. for 2 days. (2p) Also on Day 4, 90% differentiation medium for the DCs were removed from the 6-well plate, and 90% fresh differentiation medium were added. The cells were treated with 3, 1, 0.3, 0.1, 0.01 and 0 μM plinabulin as stated above in (2m) (Study Arm #1). After another 2 days incubation, the dendritic cell maturation was evaluated by FACS for CD40, CD80, MHCII and CD86. The rest cells continued without treatment to steps (4a)-(4d) below for MLR assay. […]

Setting [2] is: treated during differentiation or maturation.

Regarding `CC(C)(C)c1[nH]cnc1/C=c1\[nH]c(=O)/c(=C/c2ccccc2)[nH]c1=O` [Plinabulin, (3Z,6Z)-3-Benzylidene-6-{[5-(2-methyl-2-propanyl)-1H-imidazol-4-yl]methylene}-2,5-piperazinedione], the “clinical observations within 1 day following test article administration” value in series [1] was “decreased activity, irregular breathing, dehydration, and body cold to touch”. Moreover, in the series with CD14^+ dendritic cells (cells treated during DC maturation (Study Arm #A2)), the “CD86 expression on DCs” value is “increased CD86 expression on DCs”. For the same compound, the “CD86 expression on DCs” value in the series on CD14^+ dendritic cells (cells treated during differentiation from CD14 cells (Study Arm #A1)) is listed as “increased CD86 expression on DCs”. Moreover, in the series on CD14^+ dendritic cells (setting [2]), the “CD40 expression on DCs” value was “no discernible increase”, the “CD80 expression on DCs” value is recorded as “no discernible increase” and the “MHCII expression on DCs” value is “no discernible increase”.
